Measurements reported in patent publication US20070112056A1, “Stable modifications of tegaserod hydrogen maleate” (priority 2003, published 2007).

How the values were obtained:
Type in all cases: physicochemical
[1] = Stability of the crystal form when exposed to heat (DSC thermogram)
Method: Characteristic for the modification A is the thermogram in differential scanning calorimetry (DSC). It has an endothermic melting peak at about 190° C. The melting enthalpy of the endothermic signal Is 130 J/g±5 J/g. The measurement Is carried out on a Perkin Elmer DSC 7 in a crimped pan with a heating rate of 10 K/minute., The typical sample quantity is about 2 mg. As a typical distinguishing feature compared with the modification B and the acetone solvate, ethanol solvate, the thermogram of the modification A has no further thermal signal (see Table 1a below):
It has an endothermic peak in addition to the one at about 190° C., at 97° C. and melting/crystallization signals at about 181° C. […] The measurement is done as described above.

[2] = Conversion between crystal forms / thermodynamic stability
[3] = Stability of the crystal form in the presence of water
Solubility = assay: Solubility
[4] = compared to modification B and the ethanol, acetone solvate

CCCCCNC(=N)N/N=C/c1c[nH]c2ccc(OC)cc12.O=C(O)/C=C\C(=O)O [modification A, modification A of the hydrogen maleate salt of 3-(5-methoxy-1H-indol-3-yl-methylene)-N-pentylcarbazimidamide]
stability when exposed to heat [1, 4]: more stable when exposed to heat | thermodynamic stability ([2]; relative to modification B): thermodynamically more stable than modification B | stability in the presence of water [3, 4]: more stable In the presence of water

CCCCCNC(=N)N/N=C/c1c[nH]c2ccc(OC)cc12.O=C(O)/C=C\C(=O)O [modification B]
conversion of crystal form when heating is applied ([1]; DSC, heating rate 10 K/minute): converts into modification A | conversion of crystal form ([2]; under certain conditions, e.g. heat or water containing organic solvents): completely or partly be converted into modification A

CCCCCNC(=N)N/N=C/c1c[nH]c2ccc(OC)cc12.O=C(O)/C=C\C(=O)O [solvate with acetone]
conversion of crystal form by equilibration with water ([3]; equilibration with water): can be transformed into modification A

CCCCCNC(=N)N/N=C/c1c[nH]c2ccc(OC)cc12.O=C(O)/C=C\C(=O)O [tegaserod hydrogen maleate, 3-(5-methox-1H-indol-3-yl-methylene)-N-pentylcarbazimidamide hydrogen maleate]
solubility (Solubility): poor
